Test results: US20180103638A1, “SOIL TREATMENT” (PeroxyChem LLC, priority 2016, published 2018)
Entries after “also recorded” stand apart in the source; their conditions may differ. Where two headings read alike, the source gives them in different places.

Columns and labels:
[1] = tested on: Meloidogyne incognita and Meloidogyne hapla; assay: Root-knot Nematode Egg Hatch Assay (soil drench); format: in vivo; conditions: for % Egg Hatching: Example 3, 1 ml/cm^2, sand-loam soil, relative to distilled water control (100)
Description: (§1) Test method: A peracetic acid stock solution containing 5% PAA and 22% H2O2 (VigorOx® from PeroxyChem, LLC) was used for methods that specified 1750 ppm PAA. A peracetic acid stock solution containing 15% PAA and 10% H2O2 (VigorOx SP-15) was used for methods that specified 3525 ppm PAA. A stock solution of formaldehyde (37% in 10-15% methanol) was used to prepare a 1% aqueous solution of formaldehyde (with about 0.3% methanol).
(§2) Solutions were applied as the soil drench with an application volume of 12 kL/ha. The Test Medium was: pasteurized 50:50 Loamy sand or pasteurized sand. The efficacy of PAA was evaluated in three different Greenhouse Test Assays: 1) the Tomato Root-knot Galling Index Assay using the nematode species Meloidogyne incognita and Meloidogyne hapla; 2) the Root-knot Nematode Egg Hatch Assay using the nematode species Meloidogyne incognita and Meloidogyne hapla; and 3) assay of levels of soil bacteria using Bacillus mycoides.
The Root-knot Nematode Egg Hatch Assay was carried out essentially as follows. Eggs were collected from roots of infected tomato plants. To release the eggs, the egg masses were placed in a solution of sodium hypochlorite and manually shaken. The solution was centrifuged and the eggs washed with distilled water. Eggs were kept in the dark until needed for the experiments and used in the same day of collection. The experiments were performed in pots filled with pasteurized soil inoculated with about several thousands of individual eggs and then drenched with each treatment solution and controls. The treated soils were covered and incubated for the time periods indicated below. Following the incubation period, the soils were transferred to collect hatched J2 (second stage juveniles). The collected material was observed under the microscope and the number of J2 counted.
Seedlings were inoculated and cultured in pasteurized Pemberton soil for 14 days. Seedlings were then treated with either formaldehyde, 1750 ppm PAA or 3525 ppm PAA for 13 days. Nematode eggs were extracted from infected roots and their ability to hatch was evaluated.
Test method: A peracetic acid stock solution containing 15% PAA and 10% H2O2 (VigorOx SP-15) was used for methods that specified 3750, 5000, 7500, 10000 ppm PAA. Capryleth-9 carboxylic acid (C9CA) was used at concentrations of 5000 and 10000 ppm. A stock solution of formaldehyde (37% in 10-15% methanol) was used to prepare a 1% aqueous solution of formaldehyde. The final methanol concentration was about 0.3%.
Solutions were applied as a soil drench with an application volume of 12 kL/ha. The Test Medium was pasteurized Pemberton loamy soil, sand or pasteurized sand. The efficacy of PAA was evaluated with the Root-Knot Nematode Egg Hatch Assay using the nematode species Meloidogyne incognita and Meloidogyne hapla.
Seedlings were inoculated and cultured for 22 days and then treated for 21 days with either PAA alone at various concentrations, C9CA alone at various concentrations, or a combination of PAA and C9CA. Nematode eggs were extracted from infected roots and their ability to hatch was evaluated.
Test method: A peracetic acid stock solution containing 15% PAA and 10% H2O2 (VigorOx SP-15) was used for methods that specified 3500 and 20,000 ppm PAA. Capryleth-9 carboxylic acid (C9CA) was used at concentrations of 250 and 10000 ppm.
Solutions were applied as a soil drench with an application volume of 1 ml/cm^2. The Test Medium was pasteurized sand-loam soil. The efficacy of PAA was evaluated with the Root-knot Nematode Egg Hatch Assay using the nematode species Meloidogyne incognita and Meloidogyne hapla.
The viability of the root-knot nematodes eggs used for each set of experiments in this example was also evaluated. Eggs were incubated with the different solutions in glass dishes in the dark at 25° C. They were observed daily under the microscope to confirm that the eggs were viable and able to hatch in water after 18 hr/24 hr of incubation.

[2] = tested on: Meloidogyne incognita and Meloidogyne hapla; format: in vivo
Description: as §1, §2

[3] = tested on: Bacillus mycoides; format: cell-based; conditions: treated four days, soil
Description: as §1, §2
Soil was inoculated with Bacillus mycoides, incubated for five days and then treated with formaldehyde or […] for four days. Bacteria were collected from soil and their levels were evaluated based on colony forming units.

[4] = tested on: Bacillus subtilis ATCC 19659; assay: Sporicidal assay in soil; format: cell-based; conditions: 3525 ppm PAA; 1 hour, 2 and 7 days treatment
Description: Test method: A peracetic acid stock solution containing 15% PAA and 10% H2O2 (VigorOx SP-15) was used for methods that specified 3525 ppm PAA. Deionized water was used as a control.
Solutions were applied as the soil drench with an application volume of 1.5 ml/cm^2. The Test Medium was pasteurized Pemberton soil. The spore inoculum was Bacillus subtilis ATCC 19659. Spores were counted as follows: Soil was pasteurized to remove background microbial content. The soil was distributed into test cells. Concentrated Bacillus subtilis ATCC 19659 spore suspension was diluted in Butterfield's buffer and used as the inoculum in this test. For titer determination, the inoculum was diluted in Butterfield's buffer and plated on Petrifilm APC. In order to test for antimicrobial efficacy following treatments, soil was scooped from the cell and measured into a sterile plastic centrifuge tube. Deionized water was then added to each soil sample. The tubes were then capped, shaken to suspend soil, and vortexed at maximum speed using the lab vortex. The samples were allowed to settle for several seconds, and then 2 mL of fluid was removed from the tube. One ml of the removed sample was diluted in 9 mL Butterfield's buffer. The remainder of the removed sample was plated onto Petrifilm APC. […] The plates were all incubated at 30±2° C. for 2-5 days and then colonies on the plates were counted.

[5] = tested on: Aspergillus niger ATCC 16404; assay: Fungicidal assay in soil; format: cell-based
Description: Test method: A peracetic acid stock solution containing 15% PAA and 10% H2O2 (VigorOx SP-15) was used for methods that specified 3500 and 20,000 ppm PAA. Capryleth-9 carboxylic acid (C9CA) was used at concentrations of 5000 and 30,000 ppm.
Solutions were applied as a soil drench with an application volume of 1.5 ml/cm^2. The Test Medium was pasteurized Pemberton soil. The spore inoculum was Aspergillus niger ATCC 16404. The fungicidal activity of the compositions was evaluated as follows: Soil was pasteurized to remove background microbial content. The soil was the filled into test cells. Aspergillus niger ATCC 16404 was grown on Potato Dextrose Agar (PDA) plates for 5 days at 35° C. A culture for test was prepared by washing a plate with Butterfield's buffer, grinding in a sterile tissue grinder, and filtering through a cell filter to remove hyphae and debris. The suspension was diluted 1:100 in Butterfield's buffer and was added to the soil as the inoculum. The inoculum was enumerated on Petrifilm APC to determine the titer. In order to analyze antimicrobial efficacy following the treatments, soil was scooped from the cell and weighed into a sterile plastic cup. Sterile deionized water was added to the cup using a serological pipette. The cups were then capped, shaken to suspend soil, and vortexed at maximum speed using the lab vortex. The samples were allowed to settle for several seconds, and then 2 mL of fluid was removed from the tube. One ml of the removed fluid was diluted in 9 mL Butterfield's buffer. The remaining removed fluid was plated onto Petrifilm Petrifilm YM. The diluted sample was further serially diluted and plated to 10^−3 on YM. The plates were all incubated at 35±2° C. for 3 to 4 days and colonies were counted.

## C=O [Formaldehyde, formaldehyde, reference compound]
[1]; in vivo
  % Reduction of J2 Population: 60%
  % Reduction of J2 population: 78%
[2]; in vivo
  Root-knot Galling Index: 2
[3]; at 1%
  % Reduction in population (CFU's): 42.5%

## CC(=O)OO [PAA, peracetic acid]
[1]; Example 1, 1750 ppm PAA, 12 kL/ha, treated 13 days, Pemberton soil
  % Reduction of J2 population: did not reduce
[1]; Example 1, 3525 ppm PAA, 12 kL/ha, treated 13 days, Pemberton soil
  % Reduction of J2 population: 51%
[1]; Example 2, 5000 ppm PAA, 12 kL/ha, 21 days after treatment
  % Reduction of J2 Population: 20%
[1]; Example 2, 10000 ppm PAA, 12 kL/ha, 21 days after treatment
  % Reduction of J2 Population: 28%
[1]; 20000 ppm PAA
  % Egg Hatching: 53%
[2]; 1750 ppm PAA, soil drench 12 kL/ha, treated 27 days, scale 0=no galling to 10=severe galling
  Root-knot Galling Index: only a modest reduction
[4]
  bacterial spores capable of giving rise to viable colonies recovered: no bacterial spores capable of giving rise to viable colonies were recovered
[3]; 1750 ppm PAA
  % Reduction in population (CFU's): 47.5%
[5]; 3500 ppm PAA, 1 hour
  Log10 CFU: 3.2 Log10 CFU
[5]; 3500 ppm PAA, 24 hours
  Log10 CFU: 0.0 Log10 CFU
  Log10 Reduction: completely eliminated; also recorded: Total kill
[5]; 7000 ppm PAA, one hour of treatment
  elimination of Aspergillus niger: complete elimination
[5]; 7500 ppm PAA, 1 hour
  Log10 CFU: 0.0 Log10 CFU
  Log10 Reduction: Total kill
[5]; 7500 ppm PAA, 24 hours
  Log10 CFU: 0.0 Log10 CFU
  Log10 Reduction: Total kill

## Capryleth-9 Carboxylic Acid [C9CA]
[1]; Example 2, 10000 ppm C9CA, 12 kL/ha, 21 days after treatment
  % Reduction of J2 Population: 10%
[1]; 250 ppm C9CA
  % Egg Hatching: 66%
